Experimental data: PMC12652730, “The Chemoreceptive Molecular Mechanism Underlying CSP-Mediated Recognition of Seed Elaiosome from Stemona tuberosa by Hornets” (Genes, 2025)
Like-named read-outs stand apart in the source and are kept apart here.

Tests used:
VvelCSP1 = VvelCSP1 (Vespa velutina auraria, UniProt A0A384ZVP9); assay: Fluorescence competitive binding assay (1-NPN probe) with VvelCSP1; details: for Ki: VvelCSP1
Procedure: (§1) Fluorescence competitive binding assays were employed to characterize the interactions between VvelCSPs and 13 volatiles shared between the elaiosomes of S. tuberosa and the cuticular hydrocarbons of honeybees. These tests were performed in 1 cm path length quartz cuvettes with an excitation wavelength of 337 nm and emission wavelength scanning from 400–450 nm. The volatiles and the fluorescent probe 1-NPN (1-N-phenylnaphthylamine), listed in Supplementary Table S2, were dissolved in methanol to prepare 100 mM stock solutions, which were then diluted to 1 mM working solutions [25]. To remove any potential endogenous ligands, the purified proteins were delipidated by three washes with an equal volume of dichloromethane (1:1 v/v). Each wash involved a 10-min incubation, and the process was followed by evaporation of the residual solvent under a gentle stream of nitrogen. Purified CSPs were resuspended in 20 mM Tris-HCl buffer (pH 7.5) to a final concentration of 2 μM. Binding parameters for CSP-NPN were determined by titration: 2 mL of CSP solution (2 μM) was titrated with 1-NPN (final concentrations: 2−24 μM). Maximum fluorescence intensity was recorded, and the dissociation constant was calculated. […] After incubation in the dark for 2 min, fluorescence quenching was measured. Half-maximal inhibitory concentration (IC50) values for volatiles were calculated from the competition curves, and their binding constants (Ki) were subsequently derived. The presented data, including IC50 and Ki values, originate from a single experiment under uniform conditions to ensure comparability (Supplementary Table S3).

VvelCSP4 = assay: Fluorescence competitive binding assay (1-NPN probe) with VvelCSP4; set-up: species or system Vespa velutina auraria
Procedure: as §1

[1] = VvelCSP4 2 μM, 1-NPN 1 μM, Tris-HCl pH 7.5, single experiment, read-out: IC50 (ligand concentration displacing 50% of the fluorescence intensity of the CSPs/NPN complex)
[2] = VvelCSP4, derived from IC50, read-out: Ki (dissociation constant)
[3] = VvelCSP4, read-out: IC50 (μM), no binding symbol
[4] = VvelCSP4, read-out: Ki (μM), no binding symbol

Sequence of VvelCSP1 (A0A384ZVP9 entry or part of it): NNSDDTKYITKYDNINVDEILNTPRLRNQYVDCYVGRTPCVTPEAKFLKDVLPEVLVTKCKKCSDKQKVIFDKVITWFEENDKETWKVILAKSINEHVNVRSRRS

SMILES	Raw fluorescence intensity (VvelCSP1; VvelCSP1, chemical 0.5 μM)	Raw fluorescence intensity (VvelCSP1; VvelCSP1, chemical 1 μM)	Raw fluorescence intensity (VvelCSP1; VvelCSP1, chemical 2 μM)	Raw fluorescence intensity (VvelCSP1; VvelCSP1, chemical 4 μM)	Raw fluorescence intensity (VvelCSP1; VvelCSP1, chemical 6 μM)	Raw fluorescence intensity (VvelCSP1; VvelCSP1, chemical 8 μM)	Raw fluorescence intensity (VvelCSP1; VvelCSP1, chemical 12 μM)	Raw fluorescence intensity (VvelCSP1; VvelCSP1, chemical 16 μM)	IC50 (VvelCSP4; [1]) [µM]	Raw fluorescence intensity (VvelCSP4; VvelCSP4, chemical 0.5 μM)	Raw fluorescence intensity (VvelCSP4; VvelCSP4, chemical 1 μM)	Raw fluorescence intensity (VvelCSP4; VvelCSP4, chemical 2 μM)	Raw fluorescence intensity (VvelCSP4; VvelCSP4, chemical 4 μM)	Raw fluorescence intensity (VvelCSP4; VvelCSP4, chemical 6 μM)	Raw fluorescence intensity (VvelCSP4; VvelCSP4, chemical 8 μM)	Raw fluorescence intensity (VvelCSP4; VvelCSP4, chemical 12 μM)	Raw fluorescence intensity (VvelCSP4; VvelCSP4, chemical 16 μM)	Ki (VvelCSP4; [2]) [µM]	IC50 (VvelCSP4; [3]) [µM]	Ki (VvelCSP4; [4]) [µM]	further results
CCCCCCCCCCCCCCCCCCCCCCCCCCC [Heptacosane]	222.51	205.55	159.00	136.99	130.11	123.81	117.37	115.92	6.2	218.17	194.71	172.10	154.91	140.68	130.60	128.65	125.52	4.6	–	–	–
CCCCCCCCCCCCCCCCCCCCCCCCCC [Hexacosane]	189.29	171.76	135.79	114.55	103.35	99.94	93.92	89.96	–	213.35	194.71	177.42	169.19	147.61	141.30	136.25	133.13	–	> 24	> 18	–
CCCCCCCCCCCCCCCCCCCCCCCCCCCCC [Nonacosane]	215.85	197.03	181.17	168.33	152.52	138.03	127.11	120.08	20.4	212.97	196.97	179.08	164.16	151.46	136.04	129.53	125.16	15.1	–	–	–
CCCCCCCCCCCCCCCCCCCCCCCCCCCC [Octacosane]	200.77	192.40	162.06	146.64	135.22	131.33	127.20	124.62	–	227.35	213.99	194.19	182.58	174.55	162.14	156.02	154.11	–	> 24	> 18	–
CCCCCCCCCCCCCCCCCCCCCCCCC [Pentacosane]	242.52	219.99	165.83	143.30	135.17	129.88	124.70	122.60	4.65	211.45	182.28	160.44	139.39	119.91	111.74	105.45	103.82	3.49	–	–	–
CCCCCCCCCCCCCCCCCCCCCCCCCCCCCC [Triacontane]	211.63	196.09	180.51	166.41	152.93	143.85	139.39	137.14	–	216.07	200.62	183.85	171.56	162.42	148.29	139.28	135.24	–	> 24	> 18	–

The next lines start with results.

Raw fluorescence intensity (VvelCSP1; VvelCSP1, chemical 0.5 μM)	Raw fluorescence intensity (VvelCSP1; VvelCSP1, chemical 1 μM)	Raw fluorescence intensity (VvelCSP1; VvelCSP1, chemical 2 μM)	Raw fluorescence intensity (VvelCSP1; VvelCSP1, chemical 4 μM)	Raw fluorescence intensity (VvelCSP1; VvelCSP1, chemical 6 μM)	Raw fluorescence intensity (VvelCSP1; VvelCSP1, chemical 8 μM)	Raw fluorescence intensity (VvelCSP1; VvelCSP1, chemical 12 μM)	Raw fluorescence intensity (VvelCSP1; VvelCSP1, chemical 16 μM)	IC50 (VvelCSP4; [1]) [µM]	Raw fluorescence intensity (VvelCSP4; VvelCSP4, chemical 0.5 μM)	Raw fluorescence intensity (VvelCSP4; VvelCSP4, chemical 1 μM)	Raw fluorescence intensity (VvelCSP4; VvelCSP4, chemical 2 μM)	Raw fluorescence intensity (VvelCSP4; VvelCSP4, chemical 4 μM)	Raw fluorescence intensity (VvelCSP4; VvelCSP4, chemical 6 μM)	Raw fluorescence intensity (VvelCSP4; VvelCSP4, chemical 8 μM)	Raw fluorescence intensity (VvelCSP4; VvelCSP4, chemical 12 μM)	Raw fluorescence intensity (VvelCSP4; VvelCSP4, chemical 16 μM)	Ki (VvelCSP4; [2]) [µM]	IC50 (VvelCSP4; [3]) [µM]	Ki (VvelCSP4; [4]) [µM]	SMILES	further results
246.77	231.89	197.76	171.56	161.14	158.53	154.82	153.17	3.68	205.93	179.89	159.86	127.80	108.85	102.51	95.75	91.32	2.73	–	–	CCCCCCCCCCCCCCCCCCCCCC [Docosane]	–
246.85	234.09	206.27	199.36	183.72	175.07	172.10	170.22	–	192.14	182.38	164.23	154.96	139.00	133.35	128.24	125.62	–	> 24	> 18	CCCCCCCCCCCCCCCCCCCC [Eicosane]	–
190.87	168.28	152.31	138.38	134.83	130.66	127.58	125.86	19.8	252.45	226.44	209.89	178.34	161.57	149.85	143.60	140.19	14.7	–	–	CCCCCCCCCCCCCCCCCCCCC [Heneicosane]	–
223.11	209.38	178.27	171.35	158.50	148.00	140.37	133.91	10.4	238.31	207.32	185.38	167.28	153.91	144.81	135.70	129.34	7.89	–	–	CCCCCCCCCCCCCCCCCCC [Nanadecane]	IC50 (VvelCSP1; VvelCSP1 2 μM, 1-NPN 1 μM, Tris-HCl pH 7.5, single experiment, read-out: IC50 (ligand concentration displacing 50% of the fluorescence intensity of the CSPs/NPN complex)): 18.2 µM; Ki (VvelCSP1; derived from IC50, read-out: Ki (dissociation constant)): 14.5 µM; Ki (VvelCSP1; read-out: Binding affinity class (by Ki)): > 10 µM; Ki (VvelCSP4; VvelCSP4, read-out: Binding affinity class (by Ki)): 5 to 10 µM
225.09	200.88	176.79	157.66	144.05	131.64	122.98	117.42	18.9	216.50	198.86	178.28	160.59	153.54	132.96	126.27	122.27	14.2	–	–	CCCCCCCCCCCCCCCCCCCCCCCC [Tetracosane]	–
